The test system of this assay is CT26 cells. As to the kind of experiment: CT26 colon carcinoma flank tumor model, Gemzar and 2F8. In kind it is in vivo, Mice. The settings on record: Kaplan-Meier; Gemzar 80 mg/kg Day 15; 2F8 alone 0.4 mg I.P. Days 15, 16 and 17; FIG. 2. As for the experimental part: One group of control mice was untreated. The group of mice receiving Gemzar was treated with 80 mg/kg Gemzar on Day 15.
GraphPad Prism 4 software was used to plot Kaplan-Meir survival curves and to confirm the median survival times for the groups.

Each structure is given as a SMILES string.

Compound `Nc1ccn([C@@H]2O[C@H](CO)[C@@H](O)C2(F)F)c(=O)n1` [Gemzar, gemcitabine] showed a median survival of 31 days.

These data come from patent publication US8591886B2, “Combination therapies employing GITR binding molecules” (GITR, Inc., priority 2007, dated 2013).
